{"source": "patent US20120046273A1", "about": "“COMPOUNDS AND COMPOSITIONS FOR COGNITION-ENHANCEMENT, METHODS OF MAKING, AND METHODS OF TREATING” (MITHRIDION, INC., priority 2009, published 2012)", "key": {"[1]": {"target": "T1, human muscarinic M1 receptors (Homo sapiens, UniProt P11229)", "T1 construct": "expressed in transfected cells; host or cells: A9L cells (gift from Professor W Messer)", "T1 sequence (P11229 1-460)": "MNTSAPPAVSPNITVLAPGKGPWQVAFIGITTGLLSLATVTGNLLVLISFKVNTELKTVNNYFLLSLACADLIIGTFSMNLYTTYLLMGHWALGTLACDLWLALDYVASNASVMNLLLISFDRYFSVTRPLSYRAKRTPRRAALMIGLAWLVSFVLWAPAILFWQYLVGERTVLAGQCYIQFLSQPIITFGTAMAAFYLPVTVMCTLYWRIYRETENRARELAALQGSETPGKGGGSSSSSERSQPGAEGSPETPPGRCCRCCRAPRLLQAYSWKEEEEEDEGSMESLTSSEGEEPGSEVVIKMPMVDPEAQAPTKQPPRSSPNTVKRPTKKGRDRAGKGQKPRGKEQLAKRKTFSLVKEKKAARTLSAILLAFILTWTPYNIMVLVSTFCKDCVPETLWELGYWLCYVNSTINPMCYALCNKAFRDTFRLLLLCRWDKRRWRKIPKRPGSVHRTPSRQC", "test": "Inositol phosphate production in huM1/A9L cells (IPOne TR-FRET)", "type": "cell-based", "method": "(§1) Muscarinic M1 and M3 agonist activity was evaluated by measuring the stimulation of inositol phosphate (IP) production in the presence of lithium chloride from A9L cells transfected with expression plasmids containing human muscarinic M1 and M3 receptors, respectively. The cell lines were a gift from Professor W Messer, and the methods were as described in Tejada F R et al. J. Med. Chem. 2006; 49: 7518-31 except that the assay was scaled down to run in 384 well plates, and IP was measured in the cell lysates using the non-isotopic IPOne TR-FRET assay (CIS-BIO, Inc).\n(§2) Cells were grown to 90% confluence in 384 well hi-base plates (Greiner Bio-One), compounds were added at suitable concentrations in growth medium containing 10 mM LiCL, buffered with an extra 10 mM HEPES (pH7.4), and incubated for 60 minutes at 37° C. Cells were lysed and assayed for IP following the manufacturer's instructions.\n(§3) The value for a full agonist is 100%, while partial agonists give values below 100%."}, "[2]": {"test_system": "apomorphine induced climbing", "test": "Apomorphine induced climbing model of psychosis", "type": "in vivo, CD-I mice", "procedure,_shortened": "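CD-I mice (1-2 months) dosed subcutaneously under isoflurane with compound or PBS vehicle (PBS or 96% PBS/4% hydroxypropyl-beta-cyclodextrin, 5 ml/kg), then 2 mg/kg apomorphine 5 min later. Climbing (≥3 paws off ground) in wire mesh cylinders scored for 1 min every 5 min over 60 min after dosing.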"}, "in vivo": {"test": "in vivo", "settings": "rat, po"}, "human FMO1 Supersomes": {"target": "T2, human FMO1 Supersomes (Homo sapiens, UniProt Q01740)", "T2 construct": "purchased BD Biosciences 456241", "T2 sequence (Q01740 1-532)": "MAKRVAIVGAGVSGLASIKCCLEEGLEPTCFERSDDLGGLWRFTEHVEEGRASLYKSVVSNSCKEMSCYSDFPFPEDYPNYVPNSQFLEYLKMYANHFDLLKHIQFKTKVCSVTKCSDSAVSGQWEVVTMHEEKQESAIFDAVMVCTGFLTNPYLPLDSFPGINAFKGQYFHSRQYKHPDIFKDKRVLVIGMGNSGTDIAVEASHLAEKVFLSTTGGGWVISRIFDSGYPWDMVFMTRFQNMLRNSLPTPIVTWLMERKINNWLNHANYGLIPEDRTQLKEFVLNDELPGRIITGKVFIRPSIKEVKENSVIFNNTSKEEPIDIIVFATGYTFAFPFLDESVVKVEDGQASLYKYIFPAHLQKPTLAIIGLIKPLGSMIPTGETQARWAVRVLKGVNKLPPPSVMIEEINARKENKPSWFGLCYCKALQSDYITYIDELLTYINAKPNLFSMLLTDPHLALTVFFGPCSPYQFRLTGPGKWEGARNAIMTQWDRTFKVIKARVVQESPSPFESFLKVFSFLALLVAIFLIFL", "test": "Metabolism by flavin monoxygenase 1 (FMO1) Supersomes", "type": "in vitro ADME", "method": "[…] Aliquots were removed every 10 minutes, and 1% formic acid was added to halt the reaction. Samples were centrifuged, filtered through 0.2 micron spinfilter and the amount of each compound in the supernatants was quantitated using LC/MS/MS."}, "[3]": {"settings": "rat, in vivo, po, 1 hour"}, "[4]": {"test_system": "pooled male human liver microsomes", "test": "Metabolism by human liver microsomes", "type": "in vitro ADME", "settings": "6 hours incubation", "method": "Compounds were incubated with pooled male human liver microsomes (BD Biosciences, #452172) and an NADP-regenerating system in a phosphate buffer (pH 7.4) for a total of 6 hours. Aliquots were removed every 2 hours, and 1% formic acid was added to halt the reaction. Samples were centrifuged, filtered through 0.2 micron spinfilter and the amount of each compound in the supernatants was quantitated using LC/MS/MS."}, "[5]": {"target": "T3, human muscarinic M3 receptors (Homo sapiens, UniProt P20309)", "T3 construct": "expressed in transfected cells; host or cells: A9L cells (gift from Professor W Messer)", "T3 sequence (P20309 whole entry)": "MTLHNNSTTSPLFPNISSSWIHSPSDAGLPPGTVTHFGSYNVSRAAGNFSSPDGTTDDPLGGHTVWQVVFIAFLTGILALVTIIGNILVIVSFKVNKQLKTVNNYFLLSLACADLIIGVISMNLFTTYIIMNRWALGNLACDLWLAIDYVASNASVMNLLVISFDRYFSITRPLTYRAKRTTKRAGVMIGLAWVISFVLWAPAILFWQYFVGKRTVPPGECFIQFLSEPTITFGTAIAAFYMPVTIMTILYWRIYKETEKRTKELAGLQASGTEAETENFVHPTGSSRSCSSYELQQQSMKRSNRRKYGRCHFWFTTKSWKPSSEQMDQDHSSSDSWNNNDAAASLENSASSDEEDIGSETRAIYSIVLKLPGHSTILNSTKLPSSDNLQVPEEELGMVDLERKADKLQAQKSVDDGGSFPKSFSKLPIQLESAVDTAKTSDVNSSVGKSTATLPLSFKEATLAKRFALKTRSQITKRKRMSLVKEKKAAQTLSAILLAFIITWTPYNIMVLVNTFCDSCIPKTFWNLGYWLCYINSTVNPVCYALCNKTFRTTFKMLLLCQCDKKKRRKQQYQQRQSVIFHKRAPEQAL", "test": "Inositol phosphate production in huM3/A9L cells (IPOne TR-FRET)", "type": "cell-based", "method": "as §1, §2, §3"}, "[6]": {"settings": "percentage of maximal stimulation by carbachol"}}, "data": [{"compound": "Cc1noc(C2CCCNC2)n1", "note": "(racemic) [Compound 82, 3-Methyl-5-(piperidin-3-yl)-1,2,4-oxadiazole]", "values": [{"measurement": "huM1/A9L Smax", "setting": "[1]; [6]", "value": 108, "unit": "%"}, {"measurement": "huM1/A9L ED50 relative to CCh", "setting": "[1]; potency relative to carbachol", "value": "+ (potency 2-10x CCh)"}, {"measurement": "Climbing Mean", "setting": "[2]; 82 (0.1 mg/kg) + APO", "value": 8.9, "unit": "s"}, {"measurement": "Climbing Mean", "setting": "[2]; 82 + APO + N-Methyl Scopolamine (0.3 mg/kg)", "value": 12.3, "unit": "s"}, {"measurement": "Climbing Mean", "setting": "[2]; 82 + APO + scopolamine (0.3 mg/kg)", "value": 47.0, "unit": "s"}, {"measurement": "activity in the apomorphine induced climbing model", "setting": "[2]; mice, sc", "value": "highly active and highly potent"}, {"measurement": "potency in inhibiting climbing compared with haloperidol", "setting": "[2]; mice, sc", "value": "equipotent to haloperidol"}, {"measurement": "Kp at 1 hour", "setting": "in vivo", "value": 2.38}, {"measurement": "extent of metabolism in FMO Supersomes", "setting": "human FMO1 Supersomes", "value": "less than half metabolized"}, {"measurement": "Brain/plasma ratio", "setting": "[3]", "value": 2.38}, {"measurement": "extent of metabolism in human liver microsomes", "setting": "[4]", "value": "metabolized significantly less in human liver microsomes than in rat liver microsomes"}, {"measurement": "PAMPA (? × 106)", "value": "2.56 ? × 106"}, {"measurement": "rate of crossing the lipid layer in the PAMPA test", "value": "much higher rate"}, {"measurement": "huM3/A9L Smax", "setting": "[5]; [6]", "value": 54, "unit": "%"}, {"measurement": "huM3/A9L ED50 relative to CCh", "setting": "[5]; potency relative to carbachol", "value": "+/− (potency 0.5-2x CCh)"}]}]}
